The values below come from patent publication US10456451B2, “Protease-resistant mutants of stromal cell derived factor-1 in the repair of tissue damage” (Mesoblast International Sàrl, priority 2010, dated 2019).

As a reminder, the EC50 is the concentration giving half of the maximal effect. A high value points to a need for much substance.

Assay [1] addresses T1, MMP-2 (Homo sapiens, UniProt P08253).
T1 construct: purchased R&D Systems
T1 sequence (P08253 110-660): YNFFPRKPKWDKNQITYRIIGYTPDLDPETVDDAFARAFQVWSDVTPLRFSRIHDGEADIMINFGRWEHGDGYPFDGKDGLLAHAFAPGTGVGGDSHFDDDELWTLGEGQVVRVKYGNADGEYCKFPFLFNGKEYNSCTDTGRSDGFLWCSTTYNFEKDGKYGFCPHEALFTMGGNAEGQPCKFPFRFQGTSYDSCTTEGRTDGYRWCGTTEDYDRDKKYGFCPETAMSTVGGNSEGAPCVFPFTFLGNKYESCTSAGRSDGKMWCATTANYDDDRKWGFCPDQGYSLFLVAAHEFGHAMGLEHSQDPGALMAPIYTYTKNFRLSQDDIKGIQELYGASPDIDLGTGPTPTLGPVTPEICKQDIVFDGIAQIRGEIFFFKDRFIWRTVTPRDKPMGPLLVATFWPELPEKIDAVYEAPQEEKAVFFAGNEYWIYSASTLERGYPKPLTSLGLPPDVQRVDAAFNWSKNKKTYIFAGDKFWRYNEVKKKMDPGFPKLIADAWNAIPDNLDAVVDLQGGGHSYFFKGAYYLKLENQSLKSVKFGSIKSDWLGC
Kind of assay: MMP-2 cleavage of FRET-based N-terminal 8 amino acid peptides. The class given is biochemical. The note with it: for amount of peptide cleaved by MMP-2: after 4 hours, n=4; for initial cleavage rate by MMP-2: calculated 60 minutes after addition of MMP-2, n=4. How it is done:
All peptides were synthesized with a fluorescent 7-methoxycoumarin-3-carboxylic acid (MCA) residue at the N-terminus and a quencher lysine-dinitrophenol (Dpn) residue at the C-terminus. […] Enzymatic cleavage of these peptides separated MCA from Dpn, resulting in an increased fluorescence. Peptides (10 μM) were then incubated with activated MMP-2 (Table 1), leukocyte elastase (Table 2), or cathepsin G (Table 3) (1.4 nM) in TNCB buffer (50 mM Tris, pH 7.5, with 10 mM calcium chloride, 150 mM sodium chloride, and 0.05% BRIJ 35) or phosphate-buffered saline (PBS) at 21° C. Fluorescence was measured at 340 nm excitation and 405 nm emission wavelengths at different time points with a Victor Wallace II plate reader.
Human recombinant MMP-2 (R&D Systems) was activated for 1 hour with 4-aminophenylmercuric acetate (APMA, 1 mM) at 37° C. 4 μg of Sumo-SSDF-1-RAD or Sumo-SSDF-1(S4V)-RAD was incubated for 1 hour to 48 hours at 21° C. with 50 ng of activated MMP-2 in TCNB buffer (50 mM Tris, pH 7.5, 10 mM CaCl2, 150 mM NaCl, 0.05% Brij-35). Sample loading buffer (Invitrogen) and 2-mercaptoethanol (0.5 M, final concentration) were added, and samples were boiled for 5 minutes and run on a 10% Bis-Tris gel. Proteins used for this experiment were obtained after cation-exchange chromatography, but were neither cleaved by Sumo-protease nor purified by RPC-HPLC.

In assay [2] the test system is Jurkat T-lymphocytic cells. In words: Jurkat T-lymphocyte migration (chemotaxis) assay. The class given is cell-based. The note with it: for EC50 / Jurkat Chemotaxis EC50: Jurkat cells, 3 hours migration; for activity of C-terminal variant relative to SDF-1 and SSDF-1: Jurkat migration, CXCR4 cAMP and CXCR β-arrestin assays; for activity of C-terminal variant relative to SDF-1 and SSDF-1 / activity in Jurkat cell migration assay: result in words. How it is done: Jurkat cells were labeled with Calcein-AM (1 μM) for 60 minutes at 37° C., washed twice and resuspended in RPMI without phenol red to a final density of 4,000,000 cells/ml. […] Cells were allowed to migrate for 3 hours, and cells in lower wells were washed once with PBS. Fluorescence in lower wells was measured at 485 nm excitation and 535 nm emission wavelengths with a Victor Wallace II plate reader. A standard curve was constructed for each experiment to normalize fluorescence to the number of cells.

Assay [3] deals with CXCR4 (Homo sapiens, UniProt P61073). Kind of assay: CXCR4 cAMP receptor activation assay (CHO-K1 cells expressing CXCR4). Further details: host or cells: CHO-K1. The settings on record: decrease in cAMP by Gαi activation, forskolin at EC80. The class given is cell-based. The method, then:
For the CXCR4 cAMP assay, CHO-K1 cells stably expressing the CXCR4 receptor (DiscoveRx, Fremont, Calif.) were seeded at a density of 10,000 cells/well in a 384-well plate and were allowed to recover overnight. A decrease in cAMP by CXCR4-induced Gαi activation was determined using the DiscoveRx HitHunter cAMP XS+assay following the manufacturer's protocol. […] Chemiluminescence was read with a PerkinElmer ViewLux instrument.

The target in assay [4] is CXCR7 (Homo sapiens, UniProt P25106). In words: CXCR7 β-arrestin recruitment assay (PathHunter). The assay is classed as cell-based. How it is done:
PathHunter β-arrestin assays were performed following the instructions of the manufacturer (DiscoveRx). Briefly, PathHunter cell lines stably expressing both a β-arrestin-Enzyme Acceptor of β-galactosidase fusion and one of the chemokine receptors fused with the ProLink donor peptide of […] were employed. Upon CXCR stimulation, β-arrestin is recruited to the receptor for desensitization, bringing the two fragments (the Enzyme Acceptor and the ProLink) of β-galactosidase together. This generates an active β-galactosidase enzyme that can convert a substrate to a chemiluminescent product. Cells were seeded at a density of 5000 cells/well in a 384-well plate and were allowed to adhere overnight. […] After incubation, chemiluminescent signal was generated through addition of 12.5 μl (50% v/v) of PathHunter Detection reagent cocktail (DiscoveRx) followed by a 1-hour incubation at room temperature. Microplates were read with a PerkinElmer ViewLux instrument.
A general note: Recruitment of arrestin is a read-out of receptor activation apart from second messengers.

Assay [5] deals with ischemic hindlimb blood flow. Kind of assay: Hindlimb ischemia model, laser Doppler blood flow. The class given is in vivo, C57BL/6 mice. The note with it: without nanofibers. How it is done: All animal protocols were approved by the institutional IACUC and performed in an AAALAC certified facility. Studies were performed blinded and randomized. Hindlimb ischemia was produced in male C57BL/6 mice (305 mice total), 8 to 12 weeks old (Jackson Laboratories and Charles River Laboratories). Mice were anesthetized with isoflurane (2-3% in 100% oxygen) and buprenorphin (0.05 mg/kg). Femoral artery was ligated and excised below the inguinal ligament and above the bifurcation of the popliteal artery. Protein and self-assembling peptide nanofibers were injected in the lower hindlimb after excision of the artery. Peptides were dissolved in isotonic sucrose (10%). Post-operative analgesia was provided with buprenorphin (0.05 mg/kg every 6 to 12 hours for 72 hours). The surgeon was blinded to the treatment groups in all studies performed. The first study included 35 animals total (5 animals per group), which received an intramuscular injection in the lower hindlimb with biotin-labeled nanofibers (biotin-RAD, 0.01% in 1% nanofibers hydrogel). Tissues were harvested at seven different time points and nanofibers were stained with Alexa fluor-labeled streptavidin. The second study included 40 animals (10 per group) with four groups: control without injection, nanofibers only, nanofibers+100 nM SSDF-1-RAD, and nanofibers+100 nM SSDF-1(S4V)-RAD. Laser Doppler blood flow measurements were performed with a Moor LDI2-IR (Moor Instruments) 2, 4, and 6 weeks after surgery. At each time point, five measurements (on average) per animal were made, and blood flow in the ischemic limb was normalized to blood flow in normal limb. The third study included 50 animals with four different dosages of SSDF-1(S4V)-RAD; all groups contained nanofibers. All laser Doppler measurements and histology quantifications were made by an operator blinded to the treatment groups.

Several values for one entry are separate records, joined by “and”; a condition that tells them apart may be missing. Equal entries are not always repeated. * marks the point of attachment. MCA = fluorescent 7-methoxycoumarin-3-carboxylic acid residue, COc1ccc2cc(C(=O)*)c(=O)oc2c1; Dpn = quencher lysine-dinitrophenol residue

CXCR4, sequence (P61073 whole entry): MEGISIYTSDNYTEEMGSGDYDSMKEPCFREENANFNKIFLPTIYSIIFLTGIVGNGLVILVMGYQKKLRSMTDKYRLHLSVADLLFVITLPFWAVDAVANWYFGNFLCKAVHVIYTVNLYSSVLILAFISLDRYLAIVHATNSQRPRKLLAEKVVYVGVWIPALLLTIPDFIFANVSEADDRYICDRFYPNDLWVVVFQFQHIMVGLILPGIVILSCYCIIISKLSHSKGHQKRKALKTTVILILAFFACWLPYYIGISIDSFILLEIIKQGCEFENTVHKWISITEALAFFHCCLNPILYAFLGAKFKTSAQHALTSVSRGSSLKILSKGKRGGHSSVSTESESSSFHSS
CXCR7, sequence (P25106 whole entry, the tested form may be a part): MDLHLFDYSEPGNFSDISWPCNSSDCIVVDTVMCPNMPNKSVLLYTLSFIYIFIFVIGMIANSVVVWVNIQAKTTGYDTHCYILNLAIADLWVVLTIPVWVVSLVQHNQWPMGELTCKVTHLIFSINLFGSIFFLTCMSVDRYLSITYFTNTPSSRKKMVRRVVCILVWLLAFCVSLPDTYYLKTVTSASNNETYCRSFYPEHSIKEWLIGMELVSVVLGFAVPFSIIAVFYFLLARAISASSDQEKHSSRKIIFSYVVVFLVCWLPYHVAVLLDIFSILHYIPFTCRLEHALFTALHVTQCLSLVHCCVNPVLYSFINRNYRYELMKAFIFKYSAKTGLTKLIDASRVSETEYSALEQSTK

Regarding “KPVSLSYR ({MCA}-KPVSLSYR-Dpn; listed as Homo sapiens) [SDF-1-N-terminal peptide, reference compound]”, in assay [1], the “amount of peptide cleaved by MMP-2” value came out at 205 ± 18 pmol and the “initial cleavage rate by MMP-2” value was 2.0±0.1×10^−10 M s^−1.

With “SDF-1(S4V)-N-terminal peptide: First 8 amino acids of SDF-1(S4V) (SEQ ID NO:91) with MCA at the N-terminus and quencher Dpn at the C-terminus ({MCA}-KPVVLSYR-Dpn)”, in assay [1], the “amount of peptide cleaved by MMP-2” value amounted to 1 ± 3 pmol and the “initial cleavage rate by MMP-2” value is recorded as 0.1±0.1×10^−10 M s^−1.

Take “SDF-1: Unmutated SDF-1α, 68 amino acids, SEQ ID NO:52 [reference compound]”: in assay [2], the EC50 was 1.5 nM and 1.8 nM.

Turning to “SSDF-1 (+69S): SSDF-1 with an amino acid residue (serine) added to the C-terminal end”, the EC50 worked out at 12 nM in assay [2] and 2 nM in assay [2] (listed as SSDF-1(+69S)). The “activity of C-terminal variant relative to SDF-1 and SSDF-1” value in assay [2] is listed as “retains significant activity”.

For the substance “SSDF-1 (L5D): SDF-1 with Leu→Asp at position 5 and N-terminal serine”, in assay [2], the “Jurkat Chemotaxis EC50” value was “Inactive” and the “activity in Jurkat cell migration assay” value is “inactive”.

Take “SSDF-1 (L5E): SDF-1 with Leu→Glu at position 5 and N-terminal serine”: in assay [2], the “Jurkat Chemotaxis EC50” value is “Inactive” and the “activity in Jurkat cell migration assay” value was “inactive”.

“SSDF-1 (L5H): SDF-1 with Leu→His at position 5 and N-terminal serine”: in assay [2], the “Jurkat Chemotaxis EC50” value is recorded as “Inactive” and the “activity in Jurkat cell migration assay” value was “inactive”.

“SSDF-1 (L5K): SDF-1 with Leu→Lys at position 5 and N-terminal serine”: in assay [2], the “Jurkat Chemotaxis EC50” value is given as “Inactive” and the “activity in Jurkat cell migration assay” value was “inactive”.

As to “SSDF-1 (L5P): SDF-1 with Leu→Pro at position 5 (SEQ ID NO:66) and N-terminal serine”, the 50% effective concentration (EC50) is 120 nM in assay [2] and 225 nM in assay [4]. For the same substance, the “CXCR4 (cAMP) EC50” value in assay [3] is given as “Inactive”.

For “SSDF-1 (L5T): SDF(L5T) (SEQ ID NO:56) with N-terminal serine”, the EC50 worked out at 20 nM in assay [2], 3.6 nM in assay [3] and 8.7 nM in assay [4].

Regarding “SSDF-1 (L5V): SDF(L5V) (SEQ ID NO:60) with N-terminal serine”, the EC50 in assay [2] came out at 36 nM; in assay [3] it was 33 nM; in assay [4], 21 nM.

Turning to “SSDF-1 (L5W): SDF-1 with Leu→Trp at position 5 and N-terminal serine”, in assay [2], the “Jurkat Chemotaxis EC50” value is listed as “Inactive” and the “activity in Jurkat cell migration assay” value was “inactive”.

Consider “SSDF-1 (S6C): SDF(S6C) (SEQ ID NO:61) with N-terminal serine”, for which the EC50 in assay [2] is 23 nM; in assay [3], 12 nM; in assay [4] it was 29 nM.

For the substance “SSDF-1 (S6G): SDF(S6G) (SEQ ID NO:62) with N-terminal serine”, the EC50 in assay [2] was 11 nM; in assay [3] it was 8.5 nM; in assay [4], 25 nM.

As to “SSDF-1 (V3C): SDF(V3C) (SEQ ID NO:55) with N-terminal serine”, the EC50 is 15 nM in assay [2], 0.6 nM in assay [3] and 14 nM in assay [4].

As for “SSDF-1 (V3D): SDF-1 with Val→Asp at position 3 and N-terminal serine”, in assay [2], the “Jurkat Chemotaxis EC50” value was “Inactive” and the “activity in Jurkat cell migration assay” value is “inactive”.

In the case of “SSDF-1 (V3G): SDF-1 with Val→Gly at position 3 and N-terminal serine”, in assay [2], the “Jurkat Chemotaxis EC50” value is on record as “Inactive” and the “activity in Jurkat cell migration assay” value is “inactive”.

On to “SSDF-1 (V3H): SDF(V3H) (SEQ ID NO:54) with N-terminal serine”, for which the EC50 in assay [2] is 6.7 nM; in assay [3], 1 nM; in assay [4], 92 nM.

Regarding “SSDF-1 (V3P): SDF-1 with Val→Pro at position 3 and N-terminal serine”, in assay [2], the “Jurkat Chemotaxis EC50” value is recorded as “Inactive” and the “activity in Jurkat cell migration assay” value was “inactive”.

In the case of “SSDF-1 (−68K): SDF-1 lacking the C-terminal lysine, with N-terminal serine”, the EC50 in assay [2] stood at 2.2 nM; in assay [2] (listed as SSDF-1(−68K)) it was 1.3 nM. For the same substance, in assay [2], the “activity of C-terminal variant relative to SDF-1 and SSDF-1” value is recorded as “unchanged”.

Consider “SSDF-1(S4V)(−68K): SSDF-1(S4V) lacking the C-terminal lysine”, for which, in assay [2], the EC50 came to 10 nM.

The substance “SSDF-1(S4V)-RADI: Fusion protein of SSDF-1(S4V) and RAD16-I sequence, six glycine linker (SEQ ID NO:75)” registered an EC50 in assay [2] of 18 nM.

The substance “SSDF-1(S4V)γ: SDF-1γ version of SSDF-1(S4V)” registered an EC50 in assay [2] of 47 nM.

On to “SSDF-1: SDF-1 with a serine residue added at the N-terminus”, for which the EC50 in assay [2] turned out to be 1.6 nM. The “blood flow differences between groups” value in assay [5] (fourth study, 1 mg/kg daily IM for first 7 days) is given as “No significant differences in blood flow”; in assay [5] (separate confirming study, same doses and schedule), “did not show significant differences between groups”.
